Results taken from patent publication US6878733B1, “Formulations for pharmaceutical agents ionizable as free acids or free bases” (Sugen, Inc., priority 1999, dated 2005).
Converted amounts (≈) assume the structure as drawn. Values belong to the compound of their own block, whether it stands above or below them.

How the values were obtained:
FGF receptor = assay: Inhibition of signal transduction via FGF receptor
A375 human melanoma = assay: SC tumor xenograft growth, A375; format: in vivo; settings: IP in DMSO, 75 mg/kg/d dosed 3x/week
Protocol: (§1) In most experiments, compound was administered daily.
(§2) Tumor growth was measured using venier calipers. Tumor volumes were calculated as the produce of length x width x height.

physchem = format: physicochemical
C6 cells = assay: Efficacy on established C6 SC tumors; format: in vivo, athymic mice; settings: IP 75 mg/kg/day, onset delayed until measurable tumors were present (Day 7)
SF767T human glioma = assay: SC tumor xenograft growth, SF767T; format: in vivo, BALB/c nu/nu mice; settings: IP in DMSO, 75 mg/kg/d daily
Protocol: (§3) Medium was changed every two to three days.
as §1, §2

pH solubility profile = format: physicochemical; settings: 0.1 M phosphate buffer, thermodynamic from solid
Protocol: The solution was filtered, appropriate dilutions made and the concentration of the compound in the supernatant was analyzed by a reverse phase HPLC method.

[1] = test system: EpH4-VEGF1 murine epithelial; assay: SC tumor xenograft growth, EpH4-VEGF1; format: in vivo; settings: IP in DMSO, 75 mg/kg/d daily
Protocol: as §1, §2

C6 rat glioma = assay: SC tumor xenograft growth, C6, treatment from one day post-implantation; format: in vivo, BALB/c nu/nu mice; settings: IP
Protocol: as §1, §2

SF763T human glioma = assay: SC tumor xenograft growth, SF763T; format: in vivo, BALB/c nu/nu mice; settings: IP in DMSO, 75 mg/kg/d daily
Protocol: as §3, §1, §2

Flk-1/KDR = Flk-1/KDR (Homo sapiens, UniProt P35968); assay: Inhibition of signal transduction via Flk-1/KDR
A431 human epidermal = assay: SC tumor xenograft growth, A431; format: in vivo, BALB/c nu/nu mice; settings: IP in DMSO, 100 mg/kg/d daily
Protocol: as §1, §2

PDGF receptor = assay: Inhibition of signal transduction via PDGF receptor
[2] = Oral bioavailability of formulations in beagle dogs; format: in vivo; settings: at higher doses in fasted conditions
Protocol: The formulation described below enhance the oral bioaviability of COMPOUND IV in beagle dogs, a preclinical absorption model.
Both formulations contain 50 mg/gm of Pluroanic F-68. The formulation at 50 mg/gm of COMPOUND IV contains 900 mgs of sesame oil and the one that contains 250 mg/gm of COMPOUND IV contains 700 mgs of sesame oil.
AUC refers to the area under the curve of the plasma concentration time curve and represents oral bioavilability (BA). Higher AUC indicates higher BA.

[3] = Solubility of in situ salts versus free acid; format: physicochemical

Flk-1/KDR, sequence (P35968 20-1356): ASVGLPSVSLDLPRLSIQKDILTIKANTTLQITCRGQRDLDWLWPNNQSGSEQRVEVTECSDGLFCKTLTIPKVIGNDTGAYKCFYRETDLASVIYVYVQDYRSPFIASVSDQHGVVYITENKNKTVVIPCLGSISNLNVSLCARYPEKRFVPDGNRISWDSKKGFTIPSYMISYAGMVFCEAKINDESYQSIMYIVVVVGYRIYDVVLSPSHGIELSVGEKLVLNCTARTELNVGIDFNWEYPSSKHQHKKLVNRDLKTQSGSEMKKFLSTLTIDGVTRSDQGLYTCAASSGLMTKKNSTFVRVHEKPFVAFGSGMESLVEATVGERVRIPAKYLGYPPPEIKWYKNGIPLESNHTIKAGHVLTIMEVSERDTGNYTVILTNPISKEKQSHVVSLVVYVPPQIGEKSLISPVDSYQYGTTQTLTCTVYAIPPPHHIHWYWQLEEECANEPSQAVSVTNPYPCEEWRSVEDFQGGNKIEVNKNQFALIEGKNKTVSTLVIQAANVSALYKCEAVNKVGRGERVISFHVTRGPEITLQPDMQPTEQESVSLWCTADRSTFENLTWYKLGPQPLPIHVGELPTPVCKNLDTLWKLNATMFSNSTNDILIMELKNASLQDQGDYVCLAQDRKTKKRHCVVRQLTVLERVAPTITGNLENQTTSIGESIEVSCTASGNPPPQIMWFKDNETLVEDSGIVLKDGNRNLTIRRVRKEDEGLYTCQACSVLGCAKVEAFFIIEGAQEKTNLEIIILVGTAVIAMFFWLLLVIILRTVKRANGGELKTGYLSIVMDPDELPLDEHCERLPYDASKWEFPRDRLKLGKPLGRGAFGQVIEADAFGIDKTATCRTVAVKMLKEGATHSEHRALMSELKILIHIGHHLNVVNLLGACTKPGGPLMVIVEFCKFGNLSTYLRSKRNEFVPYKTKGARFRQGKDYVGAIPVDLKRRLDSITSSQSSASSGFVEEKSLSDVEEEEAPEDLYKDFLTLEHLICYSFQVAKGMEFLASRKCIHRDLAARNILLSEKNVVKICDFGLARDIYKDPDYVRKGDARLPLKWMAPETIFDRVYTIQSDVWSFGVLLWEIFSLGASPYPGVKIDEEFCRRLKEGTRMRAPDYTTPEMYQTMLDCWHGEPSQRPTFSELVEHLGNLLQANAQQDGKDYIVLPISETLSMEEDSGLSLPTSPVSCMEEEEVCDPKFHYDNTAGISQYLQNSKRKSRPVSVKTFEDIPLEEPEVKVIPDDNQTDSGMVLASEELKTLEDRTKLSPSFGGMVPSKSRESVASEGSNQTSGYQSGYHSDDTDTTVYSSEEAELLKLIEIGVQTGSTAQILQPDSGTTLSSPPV

Compound: Cc1[nH]c(C=C2C(=O)Nc3ccccc32)c(C)c1CCC(=O)O [3-[2,4-Dimethyl-5-(2-oxo-1,2-dihydro-indol-3-ylidenemethyl)-1H-pyrrol-3-yl]-propionic acid]
inhibitor of signal transduction via FGF receptor (FGF receptor): potent inhibitor
% Mortality (A375 human melanoma): 0%
logP (physchem): 3.85
pKa (physchem): 5.02
logD (physchem; pH 7.4): 1.5
efficacy on established tumors (C6 cells): efficacious
% Mortality (SF767T human glioma): 12.5%
solubility (pH solubility profile; pH 6, aqueous buffer, pH of buffer 6.0 (0.1 M phosphate), average pH at equilibrium 6.06, two lots): 2.4 µg/mL (≈ 7.73 µM)
solubility (pH solubility profile; pH 6.5, aqueous buffer, pH of buffer 6.5 (0.1 M phosphate), average pH at equilibrium 6.52): 4 µg/mL (≈ 12.9 µM)
solubility (pH solubility profile; pH 7, aqueous buffer, pH of buffer 7.0 (0.1 M phosphate), average pH at equilibrium 6.96): 9 µg/mL (≈ 29 µM)
solubility (pH solubility profile; pH 7.4, aqueous buffer, pH of buffer 7.4 (0.1 M phosphate), average pH at equilibrium 7.39): 19 µg/mL (≈ 61.2 µM)
% Mortality [1]: 0%
% Inhibition (at day) (C6 rat glioma; 25 mg/kg Daily × 5, day 18, ns (P > 0.05)): 1 (18) %
tumor growth inhibition (C6 rat glioma; 100 mg/kg twice weekly or three times weekly, statistically significant): approximately 40%
% Mortality (SF763T human glioma): 12.5%
inhibitor of signal transduction via Flk-1/KDR (Flk-1/KDR): potent inhibitor
% Mortality (A431 human epidermal): 12.5%
inhibitor of signal transduction via PDGF receptor (PDGF receptor): potent inhibitor

oral bioavailability [2]: low bioavailability
Compound: Cc1[nH]c(/C=C2\C(=O)Nc3ccccc32)c(C)c1CCC(=O)O [COMPOUND IV, 3-[2,4-dimethyl-5-(2-oxo-1,2-dihydro-indol-3-ylidenemethyl)-1H-pyrrol-3-yl]-propionic acid]

Compound: Cc1[nH]c(C=C2C(=O)Nc3ccccc32)c(C)c1CCC(=O)O [Meglumine, 3-[2,4-dimethyl-5-(2-oxo-1,2-dihydro-indol-3-ylidenemethyl)-1H-pyrrol-3-yl]-propionic acid]
solubility ([3]; aqueous solution of the salt formed in situ, salt of 3-[2,4-dimethyl-5-(2-oxo-1,2-dihydro-indol-3-ylidenemethyl)-1H-pyrrol-3-yl]-propionic acid, in situ salt formation, pH in the column beside, read-out: Solubility): 7900 µg/mL

Compound: Cc1[nH]c(C=C2C(=O)Nc3ccccc32)c(C)c1CCC(=O)O [free acid, 3-[2,4-dimethyl-5-(2-oxo-1,2-dihydro-indol-3-ylidenemethyl)-1H-pyrrol-3-yl]-propionic acid]
solubility ([3]; water, aqueous, sodium salt compared to free acid, read-out: solubility): < 100 µg/mL
solubility ([3]; water, free acid, for comparison with the sodium salt, read-out: aqueous solubility): ~30 µg/mL
